In patent publication US20140356452A1, “Therapeutic Uses of Tetrachlorodecaoxygen (TCDO)” (IBT USA INC., priority 2012, published 2014):

Legend:
[1] = tested on: spinal cord injury (SCI) rat model; assay: Spinal cord injury rat model: lesion volume; type: in vivo; conditions: for Percent change in Lesion volume: reduction vs Saline group (group 1), 0.5 ml/kg IV
Experimental: Animals: Female Sprague-Dawley rats (Harlan Sprague-Dawley, Indianapolis, Ind.), weighing 200-225 grams each were given free access to food and water before the experiment. The animals were anesthetized with ketamine (80 mg/kg) and xylazine (10 mg/kg). Brain temperatures were monitored using a rectal thermometer. The animals' body temperature was maintained at 37° C. by using a water jacketed heating pad. Brain temperature was monitored for 1 hour prior to injury to 6 hours following injury and was recorded at 30-minute intervals.
Experimental Groups. The spinal cord injury model utilized in the studies is described in detail (Rabchevsky et al, 2002; J. Neurosci. Res. 68:7). Young adult female Sprague-Dawley rats received a spinal cord contusion using the Precision Scientific Inc. pneumatic impactor. Female animals were used due to the paralysis associated with the injury and ease of voiding the bladder. Prior to surgery, rats were assigned to different treatment groups based on a randomized block design so that on any given surgery day all treatment groups were included. The rats were anesthetized with ketamine (80 mg/kg) and xylazine (10 mg/kg) before laminectomy was performed at the 10th thoracic vertebra (T10). The vertebral column was stabilized with angled clamps on the upper thoracic (T8) and lumber […] levels and the impactor with a tip diameter of 2 mm was delivered at approximately 50 kdynes onto the exposed, intact dura overlying the dorsal spinal cord. The impactor was immediately removed, the wound irrigated with saline and the muscle and skin openings sutured together.
Drug Administration. Compound was administered in the following paradigm: intravenous injection of saline or drug solutions 15 minutes following injury at 0.5 ml/kg (1×10^4, 5×10^4, and 10×10^4 TCDO). Drug was administered once per day starting at the indicated times and continued for 5 days. The saline control group was run in parallel with the drug-treated groups.
Histology. At the end of the study, the animals were killed and the spinal cord fixed in 4% paraformaldehyde. For analysis, 20 μm cryosections were stained for eriochrome cyanine (EC) to differentiate between white matter and cell bodies to calculate the amount of spared tissue through the lesion site. Immunocytochemical analysis was performed on the tissue. Tissue sparing was determined by computed image analysis from 10 evenly spaced sections through the injured T10 segment. The volume of necrotic tissue divided by the total cross-sectional volume is converted to a percentage and subtracted from 100%. Sections were taken for immunocytochemical analysis for macrophage infiltration
Each animal received induction of 5 i.v. injections for a total of 5×0.5 ml/kg of body weight. […]

SCI rat study: mortality = type: in vivo; conditions: 0.5 ml/kg IV once daily 5 days, 6 weeks
Source text: Mortality: There were no deaths in this study.

[2] = tested on: spinal cord injury (SCI) rat model; assay: Example 3: TCDO in the spinal cord injury rat model (lesion volume, BBB); type: in vivo
Experimental: Tetrachlorodecaoxygen (TCDO) was tested for efficacy in the spinal cord injury (SCI) rat model. In order to determine the efficacy of TCDO, rats were subjected to spinal cord injury and 6 weeks of recovery. Rats were injected intravenously with saline or TCDO solutions. Rats received 1 injection regiment: administered 15 minutes after injury. Animals were injected once daily for 5 days following the injury. Treated rats were examined after 1, 2, 3, 4, 5, and 6 weeks for drug behavioral effect. The animals were examined for changes in lesion volume (LV) and Basso, Beattie and Bresnahan (BBB) locomotor test. […] However, by 7 days, TCDO was not effective in reducing the LV or behavioral deficits.

non-healing wounds = assay: Example 4: topical TCDO versus saline in 271 patients with non-healing wounds; type: in vivo, human
Experimental: TCDO was investigated for its effects on non-healing wounds. In the study, 271 patients with non-healing wounds which included post-operative wounds, venous ulcers, arterial ulcers, post traumatic wounds and decubitus ulcers. The patients received either 5 mL of TCDO or saline twice daily applied by compress or directly to the wound for 21 days. […] Irrespective of wound types, wound surface decreased 2 to 4 times more quickly with TCDO treatment compared to saline. […] Adverse events were reported by 7% and 12% of patients treated with saline and TCDO respectively, the most frequent was slight pain.

diabetic foot ulcer = assay: Example 6: randomized controlled trial of TCDO as adjunct in diabetic foot ulcer; type: in vivo, human
Experimental: This randomized controlled trial was undertaken to evaluate the effect of TCDO as an adjunct to the standard treatment of diabetic foot ulcer. A total of 40 participants were randomized into 2 groups of 20. One group underwent standard therapy combined with infusions of TCDO, and 1 underwent standard therapy combined with placebo. The wound severity scores, which vary with the severity of infection and inflammation, necrotic and granulation tissues, and wound depth and area, were assessed weekly for 9 weeks.

[3] = 4 cycles of 0.5 mL TCDO/kg body weight per day
Experimental: Patients were then given 4 cycles of WF10 with the daily dose ranging from 0.5 mL/kg body weight to 1.5 mL/kg body weight.

[4] = tested on: lipopolysaccharide (LPS) from E coli 055B5; conditions: TCDO 0.2 ml/kg iv twice during the day before iv LPS; without TCDO 346; cited from earlier work
E. coli = conditions: phagocytosis assay; cited from earlier work
[5] = tested on: monocytes and large granular lymphocytes; conditions: rats, cited from earlier work
[6] = tested on: autoimmune disease with skin manifestations; conditions: cited from earlier work
wounds [7] = conditions: topical; superior to PVP-iodine treatment; cited from earlier work
wounds [8] = conditions: applied topically; cited from earlier work
HIV = conditions: cited from earlier work
[9] = tested on: T-lymphoma cell line ACH2; conditions: cited from earlier work
[10] = tested on: monocytes, macrophages and lymphocytes; conditions: in vitro; cited from earlier work
[11] = tested on: macrophages infiltrating a skin blister; conditions: human wound-healing model; cited from earlier work
[12] = tested on: granulocytes, PBMCs, LGLs, erythropoiesis; conditions: rats, cited from earlier work
hematopoietic stem cells = conditions: mice receiving sublethal doses of irradiation; cited from earlier work
[13] = tested on: radiation-induced, chemical induced and metastatic malignant and benign tumors; conditions: cited from earlier work
[14] = tested on: humoral and cellular immune responses; conditions: cited from earlier work
activated microglia = conditions: Kindy et al.; cited from earlier work
[15] = target: gp120 envelope glycoprotein of HIV-1 (Human immunodeficiency virus type 1 group M subtype B, UniProt P04578); conditions: pre-incubation with TCDO; cited from earlier work
[16] = i.v. once daily 5 days, initiated 15 minutes following injury
[17] = after 9 weeks, subgroup analysis, p<0.01 vs placebo
[18] = one patient, four cycles at 0.5 mL/kg body weight
[19] = patients, two cycles at 0.5 mL/kg body weight

Tetrachlorodecaoxygen [TCDO]
Lesion volume (mm^3) ([1]; rat SCI, 1 × 10^4 units TCDO, 0.5 ml/kg IV once daily 5 days from 15 min after injury, day 42, mean ± SD): did not show a significant reduction | Percent change in Lesion volume ([1]; 1 × 10^4 units TCDO): 25% | Percent change in Lesion volume ([1]; 5 × 10^4 units TCDO): 50% | Percent change in Lesion volume ([1]; 10 × 10^4 units TCDO): 65% | Mortality (SCI rat study: mortality): no deaths | Reduction of LV or behavioral deficits ([2]; by 7 days): not effective | Decrease in lesion volume (LV) [2, 16]: 49% | Improvement of BBB score [2, 16]: 158% | Wound cleaning and formation of new tissue versus saline (non-healing wounds; 271 patients, 5 mL twice daily topically for 21 days): significantly superior to saline | Adverse events, patients reporting (non-healing wounds; topical, 21 days, most frequent was slight pain): 12% | Wound depth and wound area versus placebo (diabetic foot ulcer; after 9 weeks): not statistically significant | Wound severity score (diabetic foot ulcer; after 9 weeks, standard therapy plus TCDO infusions, n=20, p<0.05 vs placebo): 1.8±1.9 | Infection and inflammation score (diabetic foot ulcer; [17]): 0.0±0.0 | Necrotic tissue score (diabetic foot ulcer; [17]): 0.0±0.0 | Granulation tissue score (diabetic foot ulcer; after 9 weeks, subgroup analysis, p<0.05 vs placebo): 0.1±0.3 | Severe adverse events (diabetic foot ulcer; throughout the observation period): No severe adverse events were observed | Hemolysis [3]: no clinically relevant hemolysis | LD50 value of LPS after TCDO [4]: 518 mg | TCDO dose to which the concentration of maximal ingestion of E. coli corresponds (E. coli): 0.5 mL/kg-body weight | Time for monocyte level to return to normal value after discontinuation ([5]; after 90 days of dosing): 30 days | Blood levels of monocytes and large granular lymphocytes ([5]; daily for 90 days, 0.33 to 2.0 mL/kg body weight, within four days): greater than three times baseline value | Monocyte level elevated over baseline ([5]; sixteen days after discontinuation): approximately 50% | Treatment outcome, HIV associated psoriasis [6, 18]: successfully treated | Treatment outcome, eczema [6, 18]: successfully treated | Treatment outcome, pustular psoriasis ([6]; one patient, two cycles at 0.5 mL/kg body weight): successfully treated | Treatment outcome, chronic actinic dermatitis [6, 19]: successfully treated | Treatment outcome, pemphigus vulgaris [6, 19]: successfully treated | Reduction in wound surface (wounds [7]): 74.9% | Effects of cortisone on wounds (wounds [8]): reverse the effects of cortisone on wounds | Infectivity of HIV particles (HIV; HIV stocks supplemented with TCDO, concentration dependent): markedly decreased the infectivity of HIV particles | Anti-HIV properties (HIV; in vitro): displayed anti-HIV properties | Replication of HIV (HIV; persistently infected lymphocytic and monocytic cell lines, peripheral blood mononuclear cells): did not affect the replication of HIV | Delayed virus spread of HIV in presence of suboptimal concentrations of zidovudine (HIV; simultaneous addition of TCDO): could significantly be blocked | Induction of chromosomally integrated HIV-1 provirus [9]: failed to induce | Antigen presentation [10]: decrease antigen presentation | Macrophage TNF-α expression [10]: decrease macrophage tumor necrosis factor (TNF)-α expression | Macrophage-fibroblast cooperation [10]: enhance macrophage-fibroblast cooperation | Oxidative burst in monocytes [10]: stimulate an oxidative burst in monocytes | Phagocytosis [10]: increase phagocytosis | Number of macrophages infiltrating a skin blister [11]: increased the number of macrophages infiltrating a skin blister | Erythropoiesis ([12]; after total body X-irradiation): stimulated erythropoiesis | Proportion of granulocytes, PBMCs and LGLs [12]: increased the proportion of granulocytes, peripheral blood monocytes (PBMCs) and large granular lymphocytes (LGLs) | Regeneration of hematopoietic stem cells (hematopoietic stem cells): stimulated regeneration of hematopoietic stem cells | Antitumor effects [13]: displayed direct antitumor effects | Humoral immune response ([14]; Jerne plaque test): increased | Cellular immune response ([14]; footpad swelling test): increased | Proportions of T-helper and T suppressor/cytotoxic cells ([14]; spleen and thymus): altered proportions of T-helper and T suppressor/cytotoxic cells | Production of proinflammatory cytokines and superoxide anion (activated microglia): suppresses the production of proinflammatory cytokines and superoxide anion | Binding of gp120 of HIV-1 to cells [15]: is blocked
